Data published in US20130143929A1, “FUNGICIDAL IMIDAZOLES” (EI DU PONT DE NEMOURS AND COMPANY, priority 2010, published 2013).
Marks after values point to notes of the source that are not given here.

Legend:
Type in all cases: in vivo
[1] = tested on: Puccinia recondite f. sp. tritici (the causal agent of wheat leaf rust); experiment: Test A: wheat leaf rust, preventive spray on wheat seedlings, visual disease rating; settings: wheat leaf rust, preventive spray on wheat seedlings
Source text: (§1) General protocol for preparing test suspensions for Tests A-D: the test compounds were first dissolved in acetone in an amount equal to 3% of the final volume and then suspended at the desired concentration (in ppm) in acetone and purified water (50/50 mix by volume) containing 250 ppm of the surfactant Trem® 014 (polyhydric alcohol esters). The resulting test suspensions were then used in Tests A-D. Spraying a 200 ppm test suspension to the point of run-off on the test plants was the equivalent of a rate of 800 g/ha.
The test suspension was sprayed to the point of run-off on wheat seedlings. The following day the seedlings were inoculated with a spore suspension of Puccinia recondite f. sp. tritici (the causal agent of wheat leaf rust) and incubated in a saturated atmosphere at 20° C. for 24 h, and then moved to a growth chamber at 20° C. for 7 days, after which time visual disease ratings were made.
(§2) Results for Tests A-E are given in Table A. In the Table, a rating of 100 indicates 100% disease control and a rating of 0 indicates no disease control (relative to the controls). A dash (—) indicates no test results. An asterisk “*” next to the rating value indicates a 40 ppm test suspension was used.

[2] = tested on: Botrytis cinerea (the causal agent of tomato Botrytis); experiment: Test C: tomato Botrytis, preventive spray on tomato seedlings, visual disease rating; settings: tomato Botrytis, preventive spray on tomato seedlings
Source text: as §1
The test suspension was sprayed to the point of run-off on tomato seedlings. The following day the seedlings were inoculated with a spore suspension of Botrytis cinerea (the causal agent of tomato Botrytis) and incubated in a saturated atmosphere at 20° C. for 48 h, and then moved to a growth chamber at 24° C. for 3 days, after which time visual disease ratings were made.
as §2

[3] = tested on: Blumeria graminis f. sp. tritici (also known as Erysiphe graminis f. sp. tritici, the causal agent of wheat powdery mildew); experiment: Test D: wheat powdery mildew, preventive spray on wheat seedlings, visual disease rating; settings: wheat powdery mildew, preventive spray on wheat seedlings
Source text: as §1
The test suspension was sprayed to the point of run-off on wheat seedlings. The following day the seedlings were inoculated with a spore dust of Blumeria graminis f. sp. tritici, (also known as Erysiphe graminis f. sp. tritici, the causal agent of wheat powdery mildew) and incubated in a growth chamber at 20° C. for 8 days, after which time visual disease ratings were made.
as §2

[4] = tested on: Septoria tritici (the causal agent of wheat leaf blotch); experiment: Test B: wheat leaf blotch, preventive spray on wheat seedlings, visual disease rating; settings: wheat leaf blotch, preventive spray on wheat seedlings
Source text: as §1
The test suspension was sprayed to the point of run-off on wheat seedlings. The following day the seedlings were inoculated with a spore suspension of Septoria tritici (the causal agent of wheat leaf blotch) and incubated in a saturated atmosphere at 24° C. for 48 h, and then moved to a growth chamber at 20° C. for 19 days, after which time visual disease ratings were made.
as §2

[5] = no asterisk (standard test suspension concentration, not 40 ppm)
[6] = asterisk: 40 ppm test suspension

Row | SMILES | Test A rating (100 = 100% disease control, 0 = no disease control relative to the controls) [1, 5] [%] | Test C rating (100 = 100% disease control, 0 = no disease control relative to the controls) [2, 5] [%] | Test D rating (100 = 100% disease control, 0 = no disease control relative to the controls) [3, 5] [%] | Test B rating (100 = 100% disease control, 0 = no disease control relative to the controls) [4, 5] [%] | Test A rating (100 = 100% disease control, 0 = no disease control relative to the controls) [1, 6] | Test C rating (100 = 100% disease control, 0 = no disease control relative to the controls) [2, 6] | Test D rating (100 = 100% disease control, 0 = no disease control relative to the controls) [3, 6] | Test B rating (100 = 100% disease control, 0 = no disease control relative to the controls) [4, 6]
1 | Cc1nc(Cl)n(-c2ccc(F)cc2F)c1C(O)c1c(F)ccc(I)c1F (racemic) [compound 38] | 99 | 7 | 0 | 95 |  |  |  | 
2 | OC(c1ccc(Cl)cc1)c1c(Cl)nc(Cl)n1-c1c(F)cc(F)cc1Cl (racemic) [compound 39] | 100 | 99 | 99 | 100 |  |  |  | 
3 | OC(c1ccc(F)cc1F)c1c(Cl)nc(Cl)n1-c1c(F)cc(F)cc1Cl (racemic) [compound 40] | 100 | 100 | 100 | 100 |  |  |  | 
4 | OC(c1ccc(F)cc1Cl)c1c(Cl)nc(Cl)n1-c1c(F)cccc1Cl (racemic) [compound 41] | 100 | 100 | 100 | 100 |  |  |  | 
5 | OC(c1ccc(F)cc1Cl)c1c(Br)ncn1-c1ccc(F)cc1Cl (racemic) [compound 215] |  |  |  |  | 92* % | 55* % | 0* % | 85* %
6 | COc1ccc(-n2c(C)nc(Br)c2C(O)c2ccc(F)cc2Cl)c(OC)c1 (racemic) [compound 217] |  |  |  |  | 0* % | 42* % | 0* % | 0* %
7 | OC(c1ccc(F)cc1Cl)c1c(Br)nc(Cl)n1-c1ccc(F)cc1Cl (racemic) [compound 218] |  |  |  |  | 100* % | 100* % | 89* % | 100* %
8 | COc1ccc(C(O)c2c(C)nc(Cl)n2-c2ccc(Cl)cc2Cl)c(Cl)c1 (racemic) [compound 219] |  |  |  |  | 99* % | 98* % | 21* % | 100* %
9 | COc1ccc(C(O)c2c(C)nc(Cl)n2-c2c(F)cccc2F)c(C)c1 (racemic) [compound 220] |  |  |  |  | 100* % | 100* % | 97* % | 100* %
10 | COc1ccc(C(O)c2c(C)nc(Cl)n2-c2c(F)cccc2F)c(Cl)c1 (racemic) [compound 221] |  |  |  |  | 100* % | 99* % | 97* % | 100* %
11 | COc1ccc(C(O)c2c(Br)ncn2-c2c(F)cccc2Cl)c(C)c1 (racemic) [compound 222] |  |  |  |  | 91* % | 30* % | 0* % | 57* %
12 | COc1ccc(C(O)c2c(Br)nc(C)n2-c2c(F)cccc2Cl)c(C)c1 (racemic) [compound 224] |  |  |  |  | 100* % | 100* % | 100* % | 100* %
13 | Cc1cccc(C)c1-n1c(C)nc(Br)c1C(O)c1ccc(F)cc1Cl (racemic) [compound 225] | 89 | 37 | 0 | 83 |  |  |  | 
14 | Cc1cccc(C)c1-n1c(C)nc(Cl)c1C(O)c1ccc(F)cc1Cl (racemic) [compound 226] | 94 | 6 | 0 | 98 |  |  |  | 
15 | Cc1ncc(C(O)c2c(F)cc(F)cc2F)n1-c1c(Cl)cccc1Cl (racemic) [compound 227] | 84 | 40 | 0 | 83 |  |  |  | 
16 | COc1cc(C)c(C(O)c2c(Br)ncn2-c2ccc(F)cc2Cl)cc1Br (racemic) [compound 229] |  |  |  |  | 68* % | 0* % | 0* % | 36* %
17 | COc1ccc(C(O)c2c(Br)ncn2-c2ccc(F)cc2Cl)c(F)c1 (racemic) [compound 230] |  |  |  |  | 97* % | 99* % | 0* % | 50* %
18 | COc1ccc(C(O)c2c(Cl)nc(C)n2-c2c(F)cc(F)cc2Br)c(Cl)c1 (racemic) [compound 231] |  |  |  |  | 100* % | 99* % | 98* % | 100* %
19 | OC(c1ccc(F)cc1Cl)c1c(Br)nc(Br)n1-c1ccc(F)cc1Cl (racemic) [compound 233] |  |  |  |  | 100* % | 95* % | 72* % | 100* %
